Values quoted from earlier work, collected in US20090105346A1, “Novel crystalline forms of armodafinil and preparation thereof” (priority 2007, published 2009).

Settings: S enantiomer of modafinil compared with R enantiomer; Prisinzano et al., Tetrahedron: Asymmetry (2004)

NC(=O)C[S+]([O-])C(c1ccccc1)c1ccccc1 (single isomer, unassigned) [S enantiomer]
elimination from the body relative to the R enantiomer: three times faster
